Results as given in patent US4282375A, “Halogenated-naphthalenetriyltris(sulfonylimino)-aryl multicarboxylic acids and salts thereof” (priority 1979, dated 1981).
Read-outs that look alike come from different tables or passages of the source.

Experiments:
activated human C1 = activated human C1 (Homo sapiens, UniProt P09871); assay: Test Code 026 (C1 inhibitor); format: biochemical; details: serial twofold dilution assay; higher well number indicates higher activity
Source text: (§1) An active inhibitor protects C2 from C1 and C4; (ii) Test Code 035 (C3-C9 inhibitor)--This test determines the ability of the late components of human complement (C3-C9) to lyse EAC 142 in the presence of approriate dilutions of the test compound. An active inhibitor protects EAC 142 from lysis by human C3-C9; (iii) Test Code 036 (C-Shunt inhibitor)--In this test human erythrocytes rendered fragile are lysed in autologous serum via the shunt pathway activated by cobra venom factor in the presence of appropriate dilutions of the test compound. Inhibition of the shunt pathway results in failure of lysis; (iv) Forssman Vasculitis Test--Here, the well known complement dependent lesion, Forssman vasculitis, is produced in guinea pigs by intradermal injection of rabbit anti-Forssman antiserum. […] Percent inhibition is calculated by comparison with simultaneous controls. […]

[1] = test system: complement activity of serum; assay: Guinea Pig Intraperitoneal Test (GPIP), serum complement activity; format: in vivo; details: Cavia porcellus, ip, 200 mg./kg. i.p.
Source text: An active inhibitor protects C2 from C1 and C4; (ii) Test Code 035 (C3-C9 inhibitor)--This test determines the ability of the late components of human complement (C3-C9) to lyse EAC 142 in the presence of approriate dilutions of the test compound. An active inhibitor protects EAC 142 from lysis by human C3-C9; (iii) Test Code 036 (C-Shunt inhibitor)--In this test human erythrocytes rendered fragile are lysed in autologous serum via the shunt pathway activated by cobra venom factor in the presence of appropriate dilutions of the test compound. Inhibition of the shunt pathway results in failure of lysis; (iv) Forssman Vasculitis Test--Here, the well known complement dependent lesion, Forssman vasculitis, is produced in guinea pigs by intradermal injection of rabbit anti-Forssman antiserum. The lesion is measured in terms of diameter, edema and hemorrhage and the extent to which a combined index of these is inhibited by prior intraperitoneal injection of the test compound at 200 mg./kg. is then reported, unless otherwise stated; (v) Forssman Shock Test--Lethal shock is produced in guinea pigs by an i.v. injection of anti-Forssman antiserum and the haromic mean death time of treated guinea pigs is compared with that of simultaneous controls; (vi) Complement Level Reduction Test--In this test, the above dosed guinea pigs, or others, are bled for serum and the complement level is determined in undiluted serum by the capillary tube method of U.S. Pat. No. 3,876,376 and compared to undosed control guinea pigs; (vii) Cap 50 Test--Here, appropriate amounts of the test compound are added to a pool of guinea pig serum in vitro, after which the undiluted serum capillary tube assay referred to above is run. The concentration of compound inhibiting 50% is reported; (viii) Guinea Pig Intraperitoneal Test (GPIP)--Guinea Pigs weighing about 300 g. are dosed intraperitoneally (i.p.) with 200 mg./kg. of the test compound dissolved in saline and adjusted to pH 7-8. […] Percent inhibition is calculated by comparison with simultaneous controls. […]

shunt pathway = assay: Test Code 036 (C-Shunt inhibitor), lysis of fragile human erythrocytes in autologous serum, cobra venom factor activated; format: cell-based; details: serial twofold dilution assay; higher well number indicates higher activity
Source text: as §1

[2] = test system: late components of human complement (C3-C9); assay: Test Code 035 (C3-C9 inhibitor), lysis of EAC 142; format: biochemical; details: serial twofold dilution assay; higher well number indicates higher activity
Source text: as §1

Which results are given for `O=C([O-])c1cc(NS(=O)(=O)c2cc(S(=O)(=O)Nc3cc(C(=O)[O-])c(C(=O)[O-])c(C(=O)[O-])c3)c3c(Cl)ccc(S(=O)(=O)Nc4cc(C(=O)[O-])c(C(=O)[O-])c(C(=O)[O-])c4)c3c2)cc(C(=O)[O-])c1C(=O)[O-].[Na+].[Na+].[Na+].[Na+].[Na+].[Na+].[Na+].[Na+].[Na+]` [5,5',5"-[(8-chloro-1,3,5-naphthalenetriyl)tris(sulfonylimino)]-tri-1,2,3-benzenetricarboxylic acid, nonasodium salt]?
Cl 026 Wells (activated human C1): +7 Wells; inhibition at 200 mg/kg ([1]; 0.5 h, blood sample 30 minutes after injection, read-out: In Vivo Activity (Guinea Pig) % Inhibition Intraperitoneal, 30 minutes): -75%; inhibition at 200 mg/kg ([1]; 1 h, blood sample 60 minutes after injection, read-out: In Vivo Activity (Guinea Pig) % Inhibition Intraperitoneal, 60 minutes): -69%; inhibition at 200 mg/kg ([1]; 2 h, blood sample 120 minutes after injection, read-out: In Vivo Activity (Guinea Pig) % Inhibition Intraperitoneal, 120 minutes): 75%; Shunt Inhibition 036 Wells (shunt pathway): +5 Wells; C-Late 035 Wells [2]: +2 Wells
